Assay results as given in US12458021B2, “Microbiocidal derivatives” (SYNGENTA CROP PROTECTION AG, priority 2019, dated 2025).

How the values were obtained:
[1] = test system: Monographella nivalis (Microdochium nivale); assay: Monographella nivalis (Microdochium nivale) / liquid culture (foot rot cereals); type: cell-based; settings: PDB potato dextrose broth, 24° C., 4-5 days after application, read-out: control of Monographella nivalis (inhibition of growth, photometric)
Experimental: Example B7: Monographella nivalis (Microdochium nivale)/Liquid Culture (Foot Rot Cereals) Conidia of the fungus from cryogenic storage are directly mixed into nutrient broth (PDB potato dextrose broth). After placing a (DMSO) solution of test compound into a microtiter plate (96-well format), the nutrient broth containing the fungal spores is added. The test plates are incubated at 24° C. and the inhibition of growth is determined photometrically 4-5 days after application. […] […]-190.

[2] = test system: Mycosphaerella graminicola (Septoria tritici); assay: Mycosphaerella graminicola (Septoria tritici) / liquid culture (Septoria blotch); type: cell-based; settings: Zymoseptoria tritici, PDB potato dextrose broth, 24° C., 4-5 days after application, read-out: control of Mycosphaerella graminicola (inhibition of growth, photometric)
Experimental: (§1) Example B15: Mycosphaerella graminicola (Septoria tritici)/Liquid Culture (Septoria Blotch) Conidia of the fungus from cryogenic storage are directly mixed into nutrient broth (PDB potato dextrose broth). After placing a (DMSO) solution of test compound into a microtiter plate (96-well format), the nutrient broth containing the fungal spores is added. The test plates are incubated at 24° C. and the inhibition of growth is determined photometrically 4-5 days after application. […] […]-191.

[3] = test system: Glomerella lagenarium (Colletotrichum lagenarium); assay: Glomerella lagenarium (Colletotrichum lagenarium) / liquid culture (anthracnose); type: cell-based; settings: Colletotrichum orbiculare, PDB potato dextrose broth, 24° C., 3-4 days after application, read-out: control of Glomerella lagenarium (inhibition of growth, photometric)
Experimental: as §1, with “B3: Glomerella lagenarium (Colletotrichum lagenarium)/Liquid” for “B15: Mycosphaerella graminicola (Septoria tritici)/Liquid”, “(Anthracnose)” for “(Septoria Blotch)”, “measured” for “determined”, “3-4” for “4-5”

[4] = test system: Blumeria graminis f. sp. tritici (Erysiphe graminis f. sp. tritici); assay: Blumeria graminis f. sp. tritici / wheat / leaf disc preventative (powdery mildew on wheat); type: in vivo; settings: foliar, wheat leaf segments cv. Kanzler, inoculated 1 day after application, assessed 6-8 days after application, read-out: control of Blumeria graminis f. sp. tritici (percent disease control compared to untreated)
Description: Example B4: Blumeria graminis f. sp. tritici (Erysiphe graminis f. sp. tritici)/Wheat/Leaf Disc Preventative (Powdery Mildew on Wheat) Wheat leaf segments cv. Kanzler are placed on agar in a multiwell plate (24-well format) and sprayed with the formulated test compound diluted in water. The leaf disks are inoculated by shaking powdery mildew infected plants above the test plates 1 day after application. […] […]-192.

SMILES	inhibition at 20 ppm [1] [%]	inhibition at 20 ppm [2] [%]	inhibition at 20 ppm [3] [%]	pest or weed control at 200 ppm [4] [%]
CC1(C)CCC1NC(=O)c1nc(Nc2cc(F)cc(F)c2)ccc1O (stereo not drawn) [Compound P-2, 6-(3,5-difluoroanilino)-N-(2,2-dimethylcyclobutyl)-3-hydroxy-pyridine-2-carboxamide]	≥ 80	≥ 80	≥ 80	–
O=C(NC1CCC12CCCC2)c1nc(Nc2cc(F)nc(F)c2)ccc1O (stereo not drawn) [Compound P-3, 6-[(2,6-difluoro-4-pyridyl)amino]-3-hydroxy-N-spiro[3.4]octan-3-yl-pyridine-2-carboxamide]	≥ 80	≥ 80	≥ 80	–
COc1cnc(Nc2cc(F)cc(F)c2)nc1C(=O)NCCC(C)C [Compound P-8, 2-(3,5-difluoroanilino)-N-isopentyl-5-methoxy-pyrimidine-4-carboxamide]	≥ 80	≥ 80	≥ 80	–
COc1cnc(Nc2cc(F)nc(F)c2)nc1C(=O)NCCC(C)C [Compound P-9, 2-[(2,6-difluoro-4-pyridyl)amino]-N-isopentyl-5-methoxy-pyrimidine-4-carboxamide]	–	–	–	≥ 80
COc1cnc(Nc2cc(F)nc(F)c2)nc1C(=O)NC1CCC1(C)C (stereo not drawn) [Compound P-11, 2-[(2,6-difluoro-4-pyridyl)amino]-N-(2,2-dimethylcyclobutyl)-5-methoxy-pyrimidine-4-carboxamide]	–	–	–	≥ 80
CC1(C)CCC1NC(=O)c1nc(Nc2ccccc2)ccc1O (stereo not drawn) [Compound P-16, 6-anilino-N-(2,2-dimethylcyclobutyl)-3-hydroxy-pyridine-2-carboxamide]	≥ 80	≥ 80	≥ 80	–
CC1(C)CCC1NC(=O)c1nc(Nc2ccnc(F)c2)ccc1O (stereo not drawn) [Compound P-18, N-(2,2-dimethylcyclobutyl)-6-[(2-fluoro-4-pyridyl)amino]-3-hydroxy-pyridine-2-carboxamide]	≥ 80	≥ 80	≥ 80	–
COc1ccc(Nc2cnsc2)nc1C(=O)NCc1ccc(Cl)cc1 [Compound P-37, N-[(4-chlorophenyl)methyl]-6-(isothiazol-4-ylamino)-3-methoxy-pyridine-2-carboxamide]	≥ 80	≥ 80	≥ 80	–
COc1ccc(Nc2cnsc2)nc1C(=O)NC(C)COc1cc(F)cc(F)c1 (stereo not drawn) [Compound P-38, N-[2-(3,5-difluorophenoxy)-1-methyl-ethyl]-6-(isothiazol-4-ylamino)-3-methoxy-pyridine-2-carboxamide]	≥ 80	≥ 80	–	–
COc1ccc(Nc2cnsc2)nc1C(=O)NCCOc1ccc(Cl)cc1Cl [Compound P-39, N-[2-(2,4-dichlorophenoxy)ethyl]-6-(isothiazol-4-ylamino)-3-methoxy-pyridine-2-carboxamide]	≥ 80	≥ 80	≥ 80	–
COc1ccc(NCC2CC2)nc1C(=O)NCC(C)(C)C [Compound P-40, 6-(cyclopropylmethylamino)-N-(2,2-dimethylpropyl)-3-methoxy-pyridine-2-carboxamide]	≥ 80	≥ 80	–	–
COc1ccc(NCC(C)(C)C)nc1C(=O)NCC(C)(C)C [Compound P-43, N-(2,2-dimethylpropyl)-6-(2,2-dimethylpropylamino)-3-methoxy-pyridine-2-carboxamide]	≥ 80	≥ 80	–	–
COc1ccc(Nc2cc(F)nc(F)c2)nc1C(=O)NCc1cncn1Cc1ccccc1 [Compound P-48, N-[(3-benzylimidazol-4-yl)methyl]-6-[(2,6-difluoro-4-pyridyl)amino]-3-methoxy-pyridine-2-carboxamide]	–	–	–	≥ 80
COc1ccc(Nc2cc(F)nc(F)c2)nc1C(=O)NC1COC(C2CC2)C1 (stereo not drawn) [Compound P-50, N-(5-cyclopropyltetrahydrofuran-3-yl)-6-[(2,6-difluoro-4-pyridyl)amino]-3-methoxy-pyridine-2-carboxamide]	–	–	–	≥ 80
COc1ccc(Nc2cc(F)nc(F)c2)nc1C(=O)NCc1nn(C)c2ncccc12 [Compound P-51, 6-[(2,6-difluoro-4-pyridyl)amino]-3-methoxy-N-[(1-methylpyrazolo[3,4-b]pyridin-3-yl)methyl]pyridine-2-carboxamide]	–	–	–	≥ 80
COc1ccc(Nc2cc(F)nc(F)c2)nc1C(=O)NCC1(C)CCOC1 (stereo not drawn) [Compound P-53, 6-[(2,6-difluoro-4-pyridyl)amino]-3-methoxy-N-[(3-methyltetrahydrofuran-3-yl)methyl]pyridine-2-carboxamide]	–	–	–	≥ 80
COc1ccc(Nc2cc(F)nc(F)c2)nc1C(=O)NC1C2CCOC2C1(C)C (stereo not drawn) [Compound P-54, 6-[(2,6-difluoro-4-pyridyl)amino]-N-(7,7-dimethyl-2-oxabicyclo[3.2.0]heptan-6-yl)-3-methoxy-pyridine-2-carboxamide]	–	–	–	≥ 80
COc1ccc(Nc2cc(F)cc(F)c2)nc1C(=O)NC1CC2CCOC21 (stereo not drawn) [Compound P-59, 6-(3,5-difluoroanilino)-3-methoxy-N-(2-oxabicyclo[3.2.0]heptan-7-yl)pyridine-2-carboxamide]	–	≥ 80	≥ 80	≥ 80
COc1ccc(Nc2cc(F)cc(F)c2)nc1C(=O)NC1CC2(COC2)C1 [Compound P-64, 6-(3,5-difluoroanilino)-3-methoxy-N-(2-oxaspiro[3.3]heptan-6-yl)pyridine-2-carboxamide]	–	–	–	≥ 80
COc1ccc(Nc2cc(F)cc(F)c2)nc1C(=O)NCC1(c2ccc(Cl)nc2)CC1 [Compound P-73, N-[[1-(6-chloro-3-pyridyl)cyclopropyl]methyl]-6-(3,5-difluoroanilino)-3-methoxy-pyridine-2-carboxamide]	≥ 80	≥ 80	≥ 80	–
CCON=C(CNC(=O)c1nc(Nc2cc(F)cc(F)c2)ccc1OC)c1ncc(Cl)cc1Cl [Compound P-75, N-[2-(3,5-dichloro-2-pyridyl)-2-ethoxyimino-ethyl]-6-(3,5-difluoroanilino)-3-methoxy-pyridine-2-carboxamide]	≥ 80	≥ 80	≥ 80	–
C#CCOc1ccc(Nc2cc(F)cc(F)c2)nc1C(=O)NC(C)(C)C [Compound P-96, N-tert-butyl-6-(3,5-difluoroanilino)-3-prop-2-ynoxy-pyridine-2-carboxamide]	≥ 80	≥ 80	–	–
COc1ccc(Nc2cc(F)cc(F)c2)nc1C(=O)NC1(C#N)CSC1 [Compound P-121, N-(3-cyanothietan-3-yl)-6-(3,5-difluoroanilino)-3-methoxy-pyridine-2-carboxamide]	≥ 80	≥ 80	≥ 80	≥ 80
COc1ccc(Nc2cc(F)nc(F)c2)nc1C(=O)NC1(C)CCOC1 (stereo not drawn) [Compound P-124, 6-[(2,6-difluoro-4-pyridyl)amino]-3-methoxy-N-(3-methyltetrahydrofuran-3-yl)pyridine-2-carboxamide]	–	–	–	≥ 80
COc1ccc(Nc2ccc(F)cc2)nc1C(=O)NCC(C)(C)C [Compound P-133, N-(2,2-dimethylpropyl)-6-(4-fluoroanilino)-3-methoxy-pyridine-2-carboxamide]	≥ 80	≥ 80	≥ 80	–
COc1ccc(Nc2cccc(C)c2)nc1C(=O)NCC(C)(C)C [Compound P-140, N-(2,2-dimethylpropyl)-3-methoxy-6-(3-methylanilino)pyridine-2-carboxamide]	≥ 80	≥ 80	≥ 80	–
COc1ccc(Nc2ccc(C(F)(F)F)cc2)nc1C(=O)NC(C)(C)C [Compound P-150, N-tert-butyl-3-methoxy-6-[4-(trifluoromethyl)anilino]pyridine-2-carboxamide]	≥ 80	–	≥ 80	–
COc1ccc(Nc2cncnc2)nc1C(=O)NC(C)(C)C [Compound P-166, N-tert-butyl-3-methoxy-6-(pyrimidin-5-ylamino)pyridine-2-carboxamide]	–	–	–	≥ 80
